According to paper PMC5607274, “An iterative compound screening contest method for identifying target protein inhibitors using the tyrosine-protein kinase Yes” (Scientific Reports, 2017):

The compounds below were run against T1, human recombinant Yes [a.a. 2–543 (end)] (Homo sapiens, UniProt P07947) (assay: ADP-Glo kinase assay, inhibition rates of Yes phosphorylation activity (first and second screening)). Conditions: first screening; mean of n = 4 wells; 10 μmol L−1 compound.
T1 construct: human recombinant Yes [a.a; 2–543 (end)]; purchased BPS Bioscience 40488
Assay type: biochemical
In short: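 Hits from a first pass were rescreened after re-dissolution from fresh powder. The first pass reported the mean inhibition rate of quadruplicate wells per compound. Activity was that of recombinant human Yes [a.a. 2–543] kinase, read out with the ADP-Glo ADP-detection method.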

T1 sequence (P07947 2-543): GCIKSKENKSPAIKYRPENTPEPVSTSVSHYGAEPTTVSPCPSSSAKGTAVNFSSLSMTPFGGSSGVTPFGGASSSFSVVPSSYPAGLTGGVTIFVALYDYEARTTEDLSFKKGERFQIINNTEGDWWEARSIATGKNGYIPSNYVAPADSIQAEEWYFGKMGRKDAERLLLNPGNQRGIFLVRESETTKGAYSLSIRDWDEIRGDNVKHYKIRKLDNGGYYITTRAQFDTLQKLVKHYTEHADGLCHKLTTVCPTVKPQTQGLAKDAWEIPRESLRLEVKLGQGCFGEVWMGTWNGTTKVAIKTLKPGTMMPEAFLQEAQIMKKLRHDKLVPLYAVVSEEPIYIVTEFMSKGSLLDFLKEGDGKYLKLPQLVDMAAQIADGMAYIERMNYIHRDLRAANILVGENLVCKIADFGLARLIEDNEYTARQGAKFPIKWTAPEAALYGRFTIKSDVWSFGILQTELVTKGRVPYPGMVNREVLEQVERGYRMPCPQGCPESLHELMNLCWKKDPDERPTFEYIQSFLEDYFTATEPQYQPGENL

Row | Compound | First screening IR (inhibition rate) [%]
1 | CN(C)c1nc(N)nc(CSCc2nc3ccccc3s2)n1 [Compound Z232651876] | -13
2 | CC(SCc1nc(N)nc(N(C)C)n1)C(=O)Nc1ccc(F)cc1 (stereo not shown) [Compound Z232651902] | -3
3 | O=C(NCCc1cnn(-c2ccccc2)c1)c1cnn(-c2ccccc2)c1 [Compound Z234515634] | -7
4 | O=C(NCc1ccco1)c1cc(-c2cccnc2)nc2c1cnn2Cc1ccccc1Cl [Compound Z234860216] | 19
5 | Cc1c(C#N)c(NC(=O)CN2CCN(c3ncnc4c3cnn4C)CC2)n(Cc2ccccc2)c1C [Compound Z234865770] | 13
6 | Cc1nn(C)c2nc(C3CC3)cc(C(=O)Nc3ccccc3O)c12 [Compound Z235446856] | 27
7 | NC(=S)c1cc(C(=O)c2ccccc2O)cn2c1nc1ccccc12 [Compound Z235467022] | 5
8 | Cc1ccc(-c2noc(CN3CCN(Cc4nc5ccccc5c(=O)n4Cc4ccco4)CC3)n2)cc1 [Compound Z235827834] | 3
9 | CC(=O)c1c[nH]c(C(=O)NCc2csc(-c3ccccc3)n2)c1 [Compound Z236994250] | 4
10 | CCc1ccc(-n2c(-c3ccccc3)cn3c4c(=O)n(CCN5CCOCC5)c(=O)n(C)c4nc23)cc1 [Compound Z237376112] | 39
11 | Cc1cc(Cl)cc(Br)c1OCCNCCN(C)C.Cl [Compound Z237479802] | 9
12 | NS(=O)(=O)c1cccc(S(=O)(=O)Cl)c1 [Compound Z237480338] | 3
13 | CCCCN(C1CCS(=O)(=O)C1)S(C)(=O)=O (stereo not shown) [Compound Z237523250] | -21
14 | Cc1ccc(-n2c(-c3ccccc3)cn3c4c(=O)n(CCN5CCOCC5)c(=O)n(C)c4nc23)cc1 [Compound Z237731508] | 14
15 | Cc1ccc(C)c(CN2CCN(c3nc4c(c(=O)[nH]c(=O)n4C)n3C/C=C/c3ccccc3)CC2)c1 [Compound Z237731644] | 5
16 | Cc1ccc(C)c(CN2CCN(c3nc4c(c(=O)[nH]c(=O)n4C)n3Cc3ccc(Cl)cc3)CC2)c1 [Compound Z237733696] | 8
17 | Cc1ccc(C)c(Cn2c(N3CCN(C/C=C/c4ccccc4)CC3)nc3c2c(=O)[nH]c(=O)n3C)c1 [Compound Z237733700] | 36
18 | NS(=O)(=O)c1cccc(S(=O)(=O)N2CCCCC2)c1 [Compound Z237744790] | -8
19 | CCCN(CCC)S(=O)(=O)c1cccc(S(N)(=O)=O)c1 [Compound Z237751694] | -9
20 | CCN(CC)C(CNC(=O)C1CCN(c2ccc3nnc(C(F)(F)F)n3n2)CC1)c1ccccc1 (stereo not shown) [Compound Z237862822] | 0
21 | CCN(C(=O)c1cc(-c2ccccc2)nc2c1cnn2Cc1cccnc1)c1ccccc1 [Compound Z238053762] | -11
22 | CC(C)(C)OC(=O)N1CCN(C(=O)c2cc(-c3ccccc3)nc3c2cnn3Cc2ccncc2)CC1 [Compound Z238073806] | 5
23 | CN(C(=O)c1ccc2c(c1)CC(c1ccccc1)OC2=O)c1nc2ccccc2s1 (stereo not shown) [Compound Z238298390] | -4

Row | Compound | First screening IR (inhibition rate) [%]
24 | O=C(CN1CCOCC1)N1CCN(Cn2nc(-c3ccccc3)n(-c3ccc(F)cc3)c2=S)CC1 [Compound Z238616284] | -5
25 | CCOC(=O)c1sc2nc(CN3CCOCC3)nc(Nc3ccc(N4CCCCC4)nc3)c2c1C [Compound Z238683848] | 37
26 | CC1CN(CCCNc2ccc([N+](=O)[O-])c3nonc23)CC(C)O1 (stereo not shown) [Compound Z238688270] | 4
27 | Clc1ccc(-c2csc(Nc3ccccc3)n2)s1 [Compound Z238765362] | 28
28 | CC(=O)c1ccc(N2CCN(CC(=O)c3cc(C)[nH]c3C)CC2)c(F)c1 [Compound Z238811284] | 1
29 | CC(C(=O)NC(c1ccccc1)c1ccccc1)N1CCN(c2ncnc3c2cnn3C)CC1 (stereo not shown) [Compound Z238831180] | 64
30 | Cn1c(=O)[nH]c(=O)c2c1nc(CN1CCN(c3cccc(Cl)c3)CC1)n2CCCc1ccccc1 [Compound Z238883342] | -1
31 | Cn1c(=O)[nH]c(=O)c2c1nc(N1CCC(Cc3ccccc3)CC1)n2CCSc1nnnn1-c1ccccc1 [Compound Z239083338] | 2
32 | Cn1c(=O)[nH]c(=O)c2c1nc(N1CCN(Cc3ccccc3)CC1)n2CCSc1nnnn1-c1ccccc1 [Compound Z239092730] | 47
33 | Cc1nn(C)c2ncc(NC(=O)c3cc(-c4ccco4)nc4onc(C)c34)cc12 [Compound Z239539964] | 1
34 | NC(=O)C1CCCN(c2nc(-c3ccncc3)nc3ccccc23)C1 (stereo not shown) [Compound Z239623050] | 13
35 | COc1ccc(-n2c(-c3ccccc3)cn3c4c(=O)n(CCN5CCCCC5)c(=O)n(C)c4nc23)cc1 [Compound Z241121498] | -22
36 | O=C(NCc1ccccn1)c1cc(-c2cccnc2)nc2c1cnn2Cc1ccco1 [Compound Z242175442] | 22
37 | Cc1ccc(Cn2c(=O)c3c(nc4n(-c5ccc(S(N)(=O)=O)cc5)c(C)cn34)n(C)c2=O)cc1 [Compound Z244561242] | 9
38 | Nc1nc(NCC(=O)O)nc(NCC2CCCO2)c1[N+](=O)[O-] (stereo not shown) [Compound Z244561600] | 9
39 | COc1ccc(Nc2nc(N3CCCCC3)nc(N)c2[N+](=O)[O-])cc1 [Compound Z245295930] | 8
40 | NC(=O)C(c1ccccc1)N1CCC(CCc2ccc(O)cc2)CC1 (stereo not shown) [Compound Z245304076] | -19
41 | O=C(Nc1nc2cc(C(F)(F)F)ccc2n1Cc1ccco1)c1ccc2n[nH]nc2c1 [Compound Z245503032] | 0
42 | Cn1c(=O)[nH]c(=O)c2c1nc(N1CCN(C/C=C/c3ccccc3)CC1)n2Cc1ccc(Cl)cc1 [Compound Z246071802] | -14
43 | O=S(=O)(Nc1cnc2ccccc2c1)c1ccc(Cl)c(Cl)c1 [Compound Z246801514] | 3
44 | Cc1cn2c3c(=O)n(CCN4CCCCC4)c(=O)n(C)c3nc2n1-c1ccc(Oc2ccccc2)cc1 [Compound Z247616328] | 11
45 | CS(=O)(=O)c1ccc(S(=O)(=O)Cl)cc1 [Compound Z248485700] | 73
46 | Cc1ccc(C(CNC(=O)c2cc(Cl)c[nH]2)N2CCOCC2)o1 (stereo not shown) [Compound Z254387106] | -10

Row | Compound | First screening IR (inhibition rate) [%]
47 | CCn1ncc2c(C(=O)N(C)C)cc(-c3cccs3)nc21 [Compound Z254580980] | -9
48 | O=C1CN(C(=O)c2nn(-c3ccc(F)cc3)c3c2CCCCC3)CCN1 [Compound Z254636716] | 10
49 | NC(=O)CCn1c(SCc2cn3ccccc3n2)nnc1-c1cccs1 [Compound Z269761360] | 7
50 | O=C(Nc1cccc(C#Cc2cccs2)c1)C1CC2CCCC(C1)C2=O (stereo not shown) [Compound Z271080962] | -2
51 | CS(=O)(=O)c1ccccc1S(=O)(=O)Cl [Compound Z271096440] | 59
52 | Cc1cn2c3c(=O)n(CC(C)C)c(=O)n(C)c3nc2n1-c1ccc(S(N)(=O)=O)cc1 [Compound Z271111810] | 4
53 | c1ccc(-c2nc(Sc3n[nH]c(-c4ccncc4)n3)nc3ccccc23)cc1 [Compound Z271700602] | -1
54 | Cc1sc2nc(CN3CCC(C)CC3)nc(N3CCN(C(=O)c4ccccc4F)CC3)c2c1C [Compound Z275104396] | 0
55 | CCn1c(CSc2nnc(-c3sc(C)nc3C)o2)nc2cc(S(=O)(=O)N(C)C)ccc21 [Compound Z275500628] | 49
56 | CCn1c(=O)c2c(nc3n(-c4ccc(N(C)C)cc4)c(C)cn23)n(C)c1=O [Compound Z278205390] | 10
57 | Nc1nccnc1C(=O)Nc1ncc(Cc2cc(F)cc(F)c2)s1 [Compound Z281652038] | -1
58 | Cc1cn2c3c(=O)n(CC(C)C)c(=O)n(C)c3nc2n1-c1ccc(N(C)C)cc1 [Compound Z281877508] | 6
59 | CCN(CC)Cc1ccc(CNC(=O)c2ccccc2SCc2cscn2)cc1 [Compound Z283831144] | 33
60 | CN(Cc1ccc(F)cc1F)C(=O)c1cc(-c2ccccc2)nc2c1cnn2Cc1ccncc1 [Compound Z283846026] | 11
61 | CCCn1c(=O)[nH]c(=O)c2cc(C(=O)N(CC)Cc3ccc4c(c3)OCO4)cnc21 [Compound Z284160386] | 5
62 | CC(=O)N1CCc2cc(NC(=O)c3ccccc3SCc3cn4ccccc4n3)ccc21 [Compound Z285525778] | -11
63 | CS(=O)(=O)c1ccc(S(=O)(=O)N2CCCC2)cc1 [Compound Z285664940] | 8
64 | CS(=O)(=O)c1ccccc1S(=O)(=O)N1CCCC1 [Compound Z285664942] | -3
65 | CC1CC(C)CN(S(=O)(=O)c2ccccc2S(C)(=O)=O)C1 (stereo not shown) [Compound Z285665176] | 55
66 | CCCN(CCC)S(=O)(=O)c1ccc(S(C)(=O)=O)cc1 [Compound Z285665192] | 14
67 | CN(Cc1ccccc1Cl)S(=O)(=O)c1ccccc1S(C)(=O)=O [Compound Z285666434] | -2

Same assay, conditions: second screening, dissolved from fresh powder; n = 4; 10 μmol L−1 compound

Row | Compound | Second screening IR (inhibition rate) [%]
68 | CCc1ccc(-n2c(-c3ccccc3)cn3c4c(=O)n(CCN5CCOCC5)c(=O)n(C)c4nc23)cc1 [Compound Z237376112] | 20
69 | CS(=O)(=O)c1ccc(S(=O)(=O)Cl)cc1 [Compound Z248485700] | -3
70 | CS(=O)(=O)c1ccccc1S(=O)(=O)Cl [Compound Z271096440] | 2
